From patent US20240376151A1, “STAPLED PEPTIDES AND METHODS THEREOF” (FOG PHARMACEUTICALS, INC., priority 2022, published 2024) come the findings set out here.

In data set [1] the test system is Expi293 cells. Kind of data set: Measurement of the Cell Association of Helicons (mass spectrometry quantification in cells after treatment and wash). The class given is cell-based. The settings on record: percentage of Helicons in cells after treatment and wash, 22 hours, n = 2, mean ± SD. As to the method:
All samples were analyzed using mass spectrometry.

Data set [2] has as its system Expi293 cells. Description: CellTiter-Glo cell health (ATP levels) during cell association assay. Particulars: reflective of cell health, luminescence Tfinal (22 hours) / Tinitial. The class given is cell-based. Background: Cellular ATP, detected with luciferase, serves as a proxy for viable cell number.
The target of data set [3] is T1, beta-catenin (Homo sapiens, UniProt P35222).
T1 construct: 10 nM full-length β-catenin (Uniprot ID P35222); 6×His-thrombin-T7-TEV (N); made in house; host or cells: E. coli BL21 (DE3) pLysS
Description: KD (μM, SPR).

The target in data set [4] is T2, β-catenin:MDM2 complex (Homo sapiens, UniProt P35222+Q00987).
T2 construct: 6×His-yBBr-TEV (N); 6×His-TEV (N, cleaved yes); made in house; host or cells: E. coli BL21 (DE3) pLysS (beta-catenin); E. coli BL21 (DE3) (MDM2)
Kind of data set: FP analysis of the β-catenin:MDM2 complex. The data set is classed as biochemical. Particulars: read-out: EC50 of cooperative interaction between MDM2 and the Armadillo domain of β-catenin.

For data set [5], the target named is T3, β-catenin:MDM4 complex (Homo sapiens, UniProt O15151+P35222, C17S).
T3 construct: 6×His-yBBr-TEV (N); 6×His-yBBr-3C (N, cleaved yes); made in house; host or cells: E. coli BL21 (DE3) pLysS (beta-catenin); E. coli BL21 (DE3) (MDM4)
T3 sequence (P35222 134-665): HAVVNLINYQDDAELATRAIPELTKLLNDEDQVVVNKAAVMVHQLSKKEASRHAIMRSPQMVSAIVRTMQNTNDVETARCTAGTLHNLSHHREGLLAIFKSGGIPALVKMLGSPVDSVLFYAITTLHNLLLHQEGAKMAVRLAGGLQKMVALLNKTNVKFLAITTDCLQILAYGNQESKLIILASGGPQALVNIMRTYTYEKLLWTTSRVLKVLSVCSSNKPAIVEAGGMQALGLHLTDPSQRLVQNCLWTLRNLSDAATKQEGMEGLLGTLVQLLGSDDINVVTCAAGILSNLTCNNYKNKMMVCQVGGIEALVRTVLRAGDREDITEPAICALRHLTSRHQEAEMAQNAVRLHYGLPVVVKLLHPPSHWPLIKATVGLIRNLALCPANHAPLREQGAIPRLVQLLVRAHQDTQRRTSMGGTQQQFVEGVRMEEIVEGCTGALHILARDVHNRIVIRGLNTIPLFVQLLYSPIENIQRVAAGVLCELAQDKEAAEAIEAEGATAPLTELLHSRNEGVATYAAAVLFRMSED
T3 sequence (O15151 14-111 C17S): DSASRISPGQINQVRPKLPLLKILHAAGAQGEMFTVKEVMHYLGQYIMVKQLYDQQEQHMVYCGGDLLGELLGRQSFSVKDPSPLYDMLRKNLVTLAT
Description: FP analysis of the β-catenin:MDM4 complex. Particulars: direct FP assay. The class given is biochemical.

The target in data set [6] is T4, MDM4 (Homo sapiens, UniProt O15151, C17S).
T4 construct: 6×His-yBBr-3C (N, cleaved yes); made in house; host or cells: E. coli BL21 (DE3)
T4 sequence (O15151 14-111 C17S): T3 sequence (O15151 14-111 C17S)
Kind of data set: Direct FP ternary complex formation, fluorescent MDM4 and beta-catenin. The data set is classed as biochemical. The settings on record: fluorescent p53-binding domain of MDM4.

Data set [7] deals with PD-L1 (Homo sapiens, UniProt Q9NZQ7).

Read-outs that look alike come from different tables or passages of the source. Numbered stars: 1 amine (or outer) side, 2 acyl side, 3 side chain; on linkers, the order of the positions; unused ones are H or OH. Bridge positions count the residues as written; N and C are the ends. Peptide text beside a SMILES is read from it. * marks the point of attachment. Phenylene(1,4-NHCOCH2)2 = O=C(C[*:1])Nc1ccc(NC(=O)C[*:2])cc1; 5FAM = O=C1OC2(c3ccc(O)cc3Oc3cc(O)ccc32)c2ccc(C(=O)*)cc21

T1 sequence (P35222 2-781 limits assumed): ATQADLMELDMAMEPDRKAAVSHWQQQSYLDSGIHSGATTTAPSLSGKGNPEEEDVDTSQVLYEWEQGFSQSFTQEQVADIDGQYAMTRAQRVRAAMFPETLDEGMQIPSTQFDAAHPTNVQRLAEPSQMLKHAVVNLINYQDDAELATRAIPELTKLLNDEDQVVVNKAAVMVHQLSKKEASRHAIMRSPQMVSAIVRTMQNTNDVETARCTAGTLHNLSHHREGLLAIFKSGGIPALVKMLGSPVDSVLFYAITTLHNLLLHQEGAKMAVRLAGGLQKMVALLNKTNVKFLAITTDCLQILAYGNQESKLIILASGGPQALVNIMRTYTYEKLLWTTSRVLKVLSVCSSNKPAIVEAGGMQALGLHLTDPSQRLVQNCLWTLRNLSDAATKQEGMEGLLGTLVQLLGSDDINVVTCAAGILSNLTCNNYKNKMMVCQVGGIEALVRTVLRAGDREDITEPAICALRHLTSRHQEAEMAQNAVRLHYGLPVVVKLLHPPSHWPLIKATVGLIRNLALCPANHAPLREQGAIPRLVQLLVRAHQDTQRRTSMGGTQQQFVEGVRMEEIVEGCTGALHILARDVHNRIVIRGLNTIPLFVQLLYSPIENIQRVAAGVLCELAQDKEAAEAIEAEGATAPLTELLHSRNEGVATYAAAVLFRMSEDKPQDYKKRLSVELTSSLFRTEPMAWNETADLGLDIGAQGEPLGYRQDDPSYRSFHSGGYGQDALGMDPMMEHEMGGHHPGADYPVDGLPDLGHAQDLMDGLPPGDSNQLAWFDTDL
Chain of PD-L1 (Q9NZQ7 18-239): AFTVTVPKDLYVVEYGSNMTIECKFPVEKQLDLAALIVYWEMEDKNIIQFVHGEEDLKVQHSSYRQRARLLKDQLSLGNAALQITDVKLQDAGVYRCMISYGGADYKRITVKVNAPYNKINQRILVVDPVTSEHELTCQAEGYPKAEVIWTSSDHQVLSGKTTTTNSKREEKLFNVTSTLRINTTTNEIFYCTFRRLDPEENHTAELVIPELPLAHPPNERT
T2 sequence (Q00987 17-111 limits assumed, one chain of several): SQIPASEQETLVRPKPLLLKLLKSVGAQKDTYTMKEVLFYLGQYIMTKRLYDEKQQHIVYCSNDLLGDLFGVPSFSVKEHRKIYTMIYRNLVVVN

`CC(C)C[C@H](NC(=O)[C@H](C)NC(=O)CNC(=O)[C@H](CCCCN)NC(=O)[C@H](CCCNC(=N)N)NC(=O)[C@H](C)NC(=O)[C@H](Cc1ccccc1)NC(=O)[C@H](CCCNC(=N)N)NC(=O)[C@H](CCC(N)=O)NC(=O)c1ccc2c(c1)C(=O)OC21c2ccc(O)cc2Oc2cc(O)ccc21)C(=O)N[C@@H](CCCNC(=N)N)C(=O)N[C@@H](CCC(N)=O)C(=O)N[C@@H](CCCCN)C(=O)N[C@@H](CC(N)=O)C(=O)N[C@H](C(N)=O)C(C)C` [FP47831, reference compound] (5FAM-QRFARKGALRQKNV-NH2): the “Helicon in cells ± SD (%)” value in data set [1] turned out to be 0.0 ± 0.0%. In addition, in data set [2], the “CellTiter-Glo fold change ± SD” value came to 1.1 ± 0.02.
As a reminder, the Kd is a measure of binding affinity in units of concentration. Low values mean tighter binding, high ones weaker binding. On to `CC(=O)N[C@@H](CC(=O)O)C(=O)N1CCC[C@H]1C(=O)N[C@@H](C)C(=O)N[C@@H](C)C(=O)N[C@@H](Cc1c[nH]cn1)C(=O)N[C@@H](CCCNC(=N)N)C(=O)N[C@H]1CSCC(=O)Nc2ccc(cc2)NC(=O)CSC[C@@H](C(=O)N[C@@H](CCC(=O)O)C(=O)N[C@@H](CC(C)C)C(=O)N[C@H](C(N)=O)C(C)C)NC(=O)[C@H](Cc2c[nH]cn2)NC(=O)[C@H](CC(C)C)NC(=O)[C@H](C)NC(=O)[C@H](C)NC(=O)[C@H](Cc2c[nH]c3ccccc23)NC(=O)[C@H](CCC(=O)O)NC1=O` [FP49250] (Ac-DPAAHRCEWAALHCELV-NH2; linker 7-14 via Phenylene(1,4-NHCOCH2)2), for which, in data set [3], the dissociation constant (Kd) came to 1.4 ± 0.55 µM.
`CC(=O)N[C@@H](CC(=O)O)C(=O)N1CCC[C@H]1C(=O)N[C@@H](C)C(=O)N[C@H](C(=O)N[C@@H](C)C(=O)N[C@@H](CCCNC(=N)N)C(=O)N[C@H]1CSCC(=O)Nc2ccc(cc2)NC(=O)CSC[C@@H](C(=O)N[C@@H](CCC(=O)O)C(=O)N[C@@H](CC(C)C)C(=O)N[C@H](C(N)=O)C(C)C)NC(=O)[C@H](Cc2c[nH]cn2)NC(=O)[C@H](CC(C)C)NC(=O)[C@H](C)NC(=O)[C@H](C)NC(=O)[C@H](Cc2c[nH]c3ccccc23)NC(=O)[C@H](CCC(=O)O)NC1=O)[C@@H](C)O` [FP49251] (Ac-DPATARCEWAALHCELV-NH2; linker 7-14 via Phenylene(1,4-NHCOCH2)2) had a Kd in data set [3] of 0.4 ± 0.05 µM.
The molecule `CC(=O)N[C@@H](CC(=O)O)C(=O)N1CCC[C@H]1C(=O)N[C@@H](C)C(=O)N[C@H](C(=O)N[C@@H](Cc1c[nH]cn1)C(=O)N[C@@H](C)C(=O)N[C@H]1CSCC(=O)Nc2ccc(cc2)NC(=O)CSC[C@@H](C(=O)N[C@@H](CCC(=O)O)C(=O)N[C@@H](CC(C)C)C(=O)N[C@H](C(N)=O)C(C)C)NC(=O)[C@H](Cc2c[nH]cn2)NC(=O)[C@H](CC(C)C)NC(=O)[C@H](C)NC(=O)[C@H](C)NC(=O)[C@H](Cc2c[nH]c3ccccc23)NC(=O)[C@H](CCC(=O)O)NC1=O)[C@@H](C)O` [FP49252] (Ac-DPATHACEWAALHCELV-NH2; linker 7-14 via Phenylene(1,4-NHCOCH2)2) had a dissociation constant Kd in data set [3] of 0.3 ± 0.1 µM.
Broadly, the EC50 is the concentration at which the effect is half-maximal. For the molecule `CC[C@H](C)[C@H](NC(=O)[C@H](C)NC(=O)[C@H](CCC(N)=O)NC(=O)[C@H](CCC(N)=O)NC(=O)[C@H](CCC(=O)O)NC(=O)[C@H](CCSC)NC(=O)[C@@H]1CCCN1C(C)=O)C(=O)N[C@H]1CSCC(=O)Nc2ccc(cc2)NC(=O)CSC[C@@H](C(=O)N[C@@H](CC(C)C)C(=O)N[C@@H](C)C(=O)N[C@@H](CC(=O)O)C(=O)N[C@@H](CC(=O)O)C(=O)N[C@@H](Cc2c[nH]c3ccccc23)C(=O)N[C@H](C(N)=O)[C@@H](C)O)NC(=O)[C@H](CCSC)NC(=O)[C@H](Cc2c[nH]c3ccccc23)NC(=O)[C@H](C)NC(=O)[C@H](C)NC(=O)[C@H](CCC(N)=O)NC(=O)[C@H](Cc2ccccc2)NC1=O` [Helicon H329] (Ac-PMEQQAICFQAAWMCLADDWT-NH2; linker 8-15 via Phenylene(1,4-NHCOCH2)2), the EC50 in data set [4] is 10 to 100 nM. Further, the “promotion of interaction between MDM4 and β-catenin” value in data set [5] is “not between MDM4 and β-catenin”.
As for `CC(=O)N1CCC[C@H]1C(=O)N[C@@H](Cc1c[nH]c2ccccc12)C(=O)N[C@@H](CCCCN)C(=O)N[C@@H](Cc1ccc(O)cc1)C(=O)N[C@@H](CCC(=O)O)C(=O)N[C@@H](CCC(N)=O)C(=O)N[C@H](C(=O)N[C@H]1CSCC(=O)Nc2ccc(cc2)NC(=O)CSC[C@@H](C(=O)N[C@@H](CC(C)C)C(=O)N[C@@H](CO)C(=O)N[C@@H](CC(=O)O)C(=O)N[C@@H](CC(=O)O)C(=O)N[C@@H](Cc2c[nH]c3ccccc23)C(=O)N[C@@H](CC(=O)O)C(N)=O)NC(=O)[C@H](CCC(N)=O)NC(=O)[C@H](Cc2c[nH]c3ccccc23)NC(=O)[C@H](C)NC(=O)[C@H](C)NC(=O)[C@H](CCC(N)=O)NC(=O)[C@H](Cc2ccc(O)cc2)NC1=O)C(C)C` [Helicon H330], the “ternary complex formation with MDM4” value in data set [6] was “did not occur”.
Take `CC[C@H](C)[C@H](NC(=O)[C@H](C)NC(=O)[C@H](CCC(N)=O)NC(C)=O)C(=O)N[C@H]1CSCC(=O)Nc2ccc(cc2)NC(=O)CSC[C@@H](C(=O)N[C@@H](CC(C)C)C(=O)N[C@@H](C)C(=O)N[C@@H](CC(=O)O)C(=O)N[C@@H](CC(=O)O)C(=O)N[C@@H](Cc2c[nH]c3ccccc23)C(=O)N[C@H](C(N)=O)[C@@H](C)O)NC(=O)[C@H](CCSC)NC(=O)[C@H](Cc2c[nH]c3ccccc23)NC(=O)[C@H](C)NC(=O)[C@H](C)NC(=O)[C@H](CCC(N)=O)NC(=O)[C@H](Cc2ccccc2)NC1=O` [Helicon H331]: the “promotion of interaction between MDM4 and β-catenin” value in data set [5] was “not between MDM4 and β-catenin”.
Still for that read-out and setting: with `CC[C@H](C)[C@H](NC(=O)[C@H](Cc1ccccc1)NC(=O)[C@H](Cc1ccc(O)cc1)NC(=O)[C@H](CC(C)C)NC(=O)[C@@H]1CSCC(=O)Nc2ccc(cc2)NC(=O)CSC[C@H](NC(=O)[C@H](CC(=O)O)NC(=O)[C@H](CCCNC(=N)N)NC(=O)[C@H](C)NC(=O)[C@H](CC(N)=O)NC(=O)[C@H](CCC(=O)O)NC(=O)[C@H](CO)NC(=O)[C@@H]2CCCN2C(C)=O)C(=O)N[C@@H](Cc2ccccc2)C(=O)N[C@@H](Cc2c[nH]c3ccccc23)C(=O)N[C@@H](C)C(=O)N[C@@H](C)C(=O)N[C@@H](Cc2c[nH]c3ccccc23)C(=O)N[C@@H](CC(=O)O)C(=O)N1)C(=O)N[C@@H](Cc1ccc(O)cc1)C(=O)N[C@@H](CCC(N)=O)C(N)=O` [Helicon H333] the entry was “not between MDM4 and β-catenin”.
For “Ac-[5FAM]-Lys-Gln-Ser-Gln-Gln-Thr-Phe-R8-Asn-Leu-Trp-Arg-Leu-Leu-S5-Gln-Asn-NH2 (KQSQQTFXNLWRLLXQN; Ac, 5FAM, R8-S5 staple, C-terminal amide; SITE 1 Acetylated 5-Carboxyfluorescein modified residue; SITE 8 (R)-2-amino-2-methyldec-9-enoic acid, useful for stapling/stapled with another amino acid residue comprising an olefin group to form a staple through the olefin group; SITE 15 (S)-2-amino-2-methylhept-6-enoic acid, useful for stapling/stapled with another amino acid residue comprising an olefin group to form a staple through the olefi) [FP47839, reference compound]”, the “Helicon in cells ± SD (%)” value in data set [1] turned out to be 2.1 ± 0.1%. Besides, in data set [2], the “CellTiter-Glo fold change ± SD” value came out at 1.3 ± 0.01.
Regarding DPAAADCQWAAFLCRVY, the “phage screen counts, Target Concentration 10” value in data set [7] (PD-L1, target concentration 10) is recorded as 0. For the same molecule, in data set [7] (PD-L1, target concentration 30), the “phage screen counts, Target Concentration 30” value came to 0. For the same molecule, in data set [7] (PD-L1, target concentration 100), the “phage screen counts, Target Concentration 100” value came out at 12. For the same molecule, in data set [7] (PD-L1, target concentration 300), the “phage screen counts, Target Concentration 300” value was determined as 47. Also, the “phage screen counts, Target Concentration 1000” value in data set [7] (PD-L1, target concentration 1000, first column) is 60; in data set [7] (PD-L1, target concentration 1000, second column), 62.
